According to ChEMBL document CHEMBL1125793 (J Med Chem, 1991):

Experiments:
Angiotensin II receptor [1] = target: T1, Angiotensin II receptor (Rattus norvegicus, UniProt P29089+P25095+P35351); assay: Binding affinity for rat brain Angiotensin II receptor
T1 sequence (P29089 whole entry): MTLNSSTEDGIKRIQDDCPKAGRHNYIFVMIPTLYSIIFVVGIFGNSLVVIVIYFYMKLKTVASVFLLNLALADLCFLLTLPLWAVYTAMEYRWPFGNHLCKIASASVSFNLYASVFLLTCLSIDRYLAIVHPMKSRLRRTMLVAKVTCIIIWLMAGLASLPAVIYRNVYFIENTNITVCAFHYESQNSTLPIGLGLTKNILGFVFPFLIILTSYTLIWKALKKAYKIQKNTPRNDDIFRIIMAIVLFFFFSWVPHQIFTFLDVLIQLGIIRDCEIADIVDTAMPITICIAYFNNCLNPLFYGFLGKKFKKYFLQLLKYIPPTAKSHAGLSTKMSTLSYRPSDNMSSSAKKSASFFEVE
T1 sequence (P25095 whole entry): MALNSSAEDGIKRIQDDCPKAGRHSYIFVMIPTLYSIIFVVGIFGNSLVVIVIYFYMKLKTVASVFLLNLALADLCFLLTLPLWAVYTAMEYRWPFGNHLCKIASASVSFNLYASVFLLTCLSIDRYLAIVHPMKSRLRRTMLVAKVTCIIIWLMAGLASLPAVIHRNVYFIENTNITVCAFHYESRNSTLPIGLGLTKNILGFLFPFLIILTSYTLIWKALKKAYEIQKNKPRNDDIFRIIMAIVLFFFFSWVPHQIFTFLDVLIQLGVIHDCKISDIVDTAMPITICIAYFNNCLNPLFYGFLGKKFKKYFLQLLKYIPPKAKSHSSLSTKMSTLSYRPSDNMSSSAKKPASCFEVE
T1 sequence (P35351 whole entry): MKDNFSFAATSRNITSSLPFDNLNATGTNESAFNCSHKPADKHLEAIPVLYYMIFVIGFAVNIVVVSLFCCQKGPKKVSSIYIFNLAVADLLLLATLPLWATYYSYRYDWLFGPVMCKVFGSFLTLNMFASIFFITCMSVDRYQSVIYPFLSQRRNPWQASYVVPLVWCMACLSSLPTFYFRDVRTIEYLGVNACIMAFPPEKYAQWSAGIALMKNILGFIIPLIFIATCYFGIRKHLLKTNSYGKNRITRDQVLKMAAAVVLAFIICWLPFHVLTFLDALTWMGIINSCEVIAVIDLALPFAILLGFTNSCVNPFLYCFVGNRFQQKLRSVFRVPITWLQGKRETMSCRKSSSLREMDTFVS

Angiotensin II receptor [2] = target: T1, Angiotensin II receptor; assay: Binding affinity against Angiotensin II receptor, from rat adrenal gland; format: tissue-based

SMILES | IC50 (Angiotensin II receptor [1]) [nM] | IC50 (Angiotensin II receptor [2]) [nM]
O=C(O)C1Cc2c(ncn2Cc2ccccc2)CN1C(=O)C1c2ccccc2-c2ccccc21 (centres undefined) | 19000 | 8000
COc1ccc(Cn2cnc3c2C[C@@H](C(=O)O)N(C(=O)C(c2ccc(F)cc2)c2ccc(F)cc2)C3)cc1C | – | 2300
O=C(C(c1ccccc1)c1ccccc1)N1Cc2ncn(Cc3ccccc3)c2CC1CO (centres undefined) | – | 2100
O=C(O)C1Cc2c(ncn2Cc2ccccc2)CN1C(=O)CC(c1ccccc1)c1ccccc1 (centres undefined) | – | 1200
COc1ccc(Cn2cnc3c2C[C@@H](C(=O)O)N(C(=O)CC2CCCCC2)C3)cc1C | – | 2000
O=C(Cc1ccccc1)N1Cc2ncn(Cc3ccccc3)c2CC1CO (centres undefined) | – | 5200
O=C(C(c1ccccc1)c1ccccc1)N1CCc2c(ncn2Cc2ccccc2)C1 | – | 6100
COc1ccc(Cn2cnc3c2C[C@@H](C(=O)O)N(C(=O)C(c2ccccc2)C2CCCC2)C3)cc1C (some centres undefined) | – | 67
O=C(O)C1Cc2c(ncn2Cc2ccccc2)CN1C(=O)CCc1ccccc1 (centres undefined) | – | 13000
O=C(O)C1Cc2c(ncn2Cc2ccccc2)CN1C(=O)Cc1ccccc1 (stereo in doubt; 14a) | – | 740
COc1ccc(Cn2cnc3c2C[C@@H](C(=O)O)N(C(=O)C(c2ccc(Cl)cc2)c2ccc(Cl)cc2)C3)cc1C | – | 2400
COc1ccc(Cn2cnc3c2C[C@@H](C(=O)O)N(C(=O)C2(c4ccccc4)CCCC2)C3)cc1C | – | 840
O=C(O)C1Cc2ncn(Cc3ccccc3)c2CN1C(=O)/C=C/c1ccccc1 (centres undefined) | – | 29000
COC(=O)C1Cc2c(ncn2Cc2ccc(N(C)C)c(C)c2)CN1C(=O)C(c1ccccc1)c1ccccc1 (centres undefined) | – | 350
COc1ccc(Cn2cnc3c2C[C@@H](C(=O)O)N(C(=O)N(C)c2ccccc2)C3)cc1C | – | 140
O=C(O)C1Cc2c(ncn2Cc2ccccc2)CN1C(=O)C(c1ccc(Cl)cc1)c1ccc(Cl)cc1 (centres undefined) | 8200 | 6800
Cc1cc(Cn2cnc3c2CC(CO)N(C(=O)C(c2ccccc2)c2ccccc2)C3)ccc1N(C)C (centres undefined) | – | 200
Cc1ccc(S(=O)(=O)N2Cc3ncn(Cc4ccccc4)c3CC2C(=O)O)cc1 (centres undefined) | – | 4200
CN(C(=O)N1Cc2ncn(Cc3ccccc3)c2CC1C(=O)O)c1ccccc1 (stereo in doubt; 3a) | – | 1100
CN(Cc1ccccc1)C(=O)N1Cc2ncn(Cc3ccccc3)c2CC1C(=O)O (centres undefined) | – | 4100
O=C(O)C1Cc2c(ncn2Cc2ccccc2)CN1C(=O)OCc1ccccc1 (stereo in doubt; 7) | – | 14000

SMILES | IC50 (Angiotensin II receptor [1]) [nM] | IC50 (Angiotensin II receptor [2]) [nM]
O=C(O)C1Cc2c(ncn2Cc2ccccc2)CN1C(=O)Cc1ccccc1 (stereo in doubt; 14) | – | 1400
O=C(O)C1Cc2c(ncn2Cc2ccccc2)CN1C(=O)C(c1ccc(F)cc1)c1ccc(F)cc1 (centres undefined) | – | 2100
O=C(O)C1Cc2c(ncn2Cc2ccccc2)CN1C(=O)COc1ccccc1 (centres undefined) | – | 4000
COc1ccc(Cn2cnc3c2C[C@@H](C(=O)O)N(C(=O)C(C)c2ccccc2)C3)cc1C (some centres undefined) | – | 560
O=C(O)[C@@H]1Cc2c(ncn2C(c2ccccc2)c2ccccc2)CN1C(=O)C(c1ccccc1)c1ccccc1 | – | 110
COc1ccc(Cn2cnc3c2C[C@@H](C(=O)O)N(C(=O)Cc2ccccc2)C3)cc1C | – | 530
COC(=O)C1Cc2c(ncn2Cc2ccc([N+](=O)[O-])c(C)c2)CN1C(=O)C(c1ccccc1)c1ccccc1 (centres undefined) | – | 5100
CC(c1ccccc1)n1cnc2c1C[C@@H](C(=O)O)N(C(=O)C(c1ccccc1)c1ccccc1)C2 (some centres undefined) | – | 1100
COc1ccc(Cn2cnc3c2CC(CO)N(C(=O)N(C)c2ccccc2)C3)cc1C (centres undefined) | – | 520
Cc1cc(C)cc(Cn2cnc3c2C[C@@H](C(=O)O)N(C(=O)C(c2ccccc2)c2ccccc2)C3)c1 | – | 140
Nc1ccc(C(C(=O)N2Cc3ncn(Cc4ccccc4)c3CC2C(=O)O)c2ccc(N)cc2)cc1 (centres undefined) | – | 8400
COc1ccc(Cn2cnc3c2C[C@@H](C(=O)O)N(C(=O)C(c2ccccc2)c2ccccc2)C3)cc1[N+](=O)[O-] | – | 51
COc1ccc(Cn2cnc3c2C[C@@H](C(=O)O)N(C(=O)C2(c4ccccc4)CCCCC2)C3)cc1C | – | 110
O=C(O)[C@@H]1Cc2c(ncn2CCC23CC4CC(CC(C4)C2)C3)CN1C(=O)C(c1ccccc1)c1ccccc1 | 170 | 130
O=C(O)C1Cc2c(ncn2Cc2ccccc2)CN1C(=O)OCc1ccccc1 (stereo in doubt; 7a) | – | 4200
COc1ccc(Cn2cnc3c2CC(CO)N(C(=O)C(c2ccccc2)c2ccccc2)C3)cc1C (centres undefined) | 130 | 370
CN(C(=O)N1Cc2ncn(Cc3ccccc3)c2CC1CO)c1ccccc1 (centres undefined) | – | 1600
Cc1ccc(C(C(=O)N2Cc3ncn(Cc4ccccc4)c3CC2C(=O)O)c2ccc(C)cc2)cc1 (centres undefined) | – | 1300
CN(C(=O)N1Cc2ncn(Cc3ccccc3)c2CC1C(=O)O)c1ccccc1 (stereo in doubt; 3) | – | 1200
O=C(C(c1ccccc1)C1CCCC1)N1Cc2ncn(Cc3ccccc3)c2CC1CO (centres undefined) | – | 6700

More lines, now with the values ahead:

IC50 (Angiotensin II receptor [1]) [nM] | IC50 (Angiotensin II receptor [2]) [nM] | SMILES
– | 89 | CC(=O)Nc1ccc(Cn2cnc3c2C[C@@H](C(=O)O)N(C(=O)C(c2ccccc2)c2ccccc2)C3)cc1C
800 | 190 | O=C(O)[C@@H]1Cc2c(ncn2Cc2ccc(C(F)(F)F)cc2)CN1C(=O)C(c1ccccc1)c1ccccc1
400 | 700 | O=C(O)[C@@H]1Cc2c(ncn2CCCc2ccccc2)CN1C(=O)C(c1ccccc1)c1ccccc1
– | 1200 | O=C(O)[C@H]1Cc2c(ncn2Cc2ccccc2)CN1C(=O)C(c1ccccc1)c1ccccc1
– | 50 | CCc1cc(Cn2cnc3c2C[C@@H](C(=O)O)N(C(=O)C(c2ccccc2)c2ccccc2)C3)ccc1OC
– | 290 | Cc1cc(Cn2cnc3c2C[C@@H](C(=O)O)N(C(=O)C(c2ccccc2)c2ccccc2)C3)ccc1[N+](=O)[O-]
– | 610 | O=C(O)[C@@H]1Cc2c(ncn2Cc2ccc([N+](=O)[O-])cc2)CN1C(=O)C(c1ccccc1)c1ccccc1
– | 56 | Cc1cc(Cn2cnc3c2C[C@@H](C(=O)O)N(C(=O)C(c2ccccc2)c2ccccc2)C3)ccc1O
– | 460 | O=C(O)[C@@H]1Cc2c(ncn2Cc2cccc(C(F)(F)F)c2)CN1C(=O)C(c1ccccc1)c1ccccc1
– | 70 | COc1ccc(Cn2cnc3c2C[C@@H](C(=O)O)N(C(=O)C(c2ccccc2)c2ccccc2)C3)cc1C
– | 650 | O=C(O)[C@@H]1Cc2c(ncn2Cc2cccc(Br)c2)CN1C(=O)C(c1ccccc1)c1ccccc1
– | 1000 | O=C(O)C1Cc2c(ncn2Cc2ccccc2)CN1C(=O)C(c1ccccc1)c1ccccc1 (stereo in doubt; 18)
1600 | 150 | Cc1cccc(Cn2cnc3c2C[C@@H](C(=O)O)N(C(=O)C(c2ccccc2)c2ccccc2)C3)c1
– | 450 | O=C(O)[C@@H]1Cc2c(ncn2Cc2ccc(F)cc2)CN1C(=O)C(c1ccccc1)c1ccccc1
210 | 34 | Cc1cc(Cn2cnc3c2C[C@@H](C(=O)O)N(C(=O)C(c2ccccc2)c2ccccc2)C3)ccc1N(C)C
– | 1200 | O=C(O)[C@@H]1Cc2c(ncn2Cc2cccc(Cl)c2)CN1C(=O)C(c1ccccc1)c1ccccc1
– | 270 | O=C(O)[C@@H]1Cc2c(ncn2Cc2ccc3ccccc3c2)CN1C(=O)C(c1ccccc1)c1ccccc1
– | 290 | COc1ccc(Cn2cnc3c2C[C@@H](C(=O)O)N(C(=O)C(c2ccccc2)c2ccccc2)C3)cc1
– | 350 | CC(=O)Nc1ccc(Cn2cnc3c2C[C@@H](C(=O)O)N(C(=O)C(c2ccccc2)c2ccccc2)C3)cc1
– | 98 | COc1ccc(Cn2cnc3c2C[C@@H](C(=O)O)N(C(=O)C(c2ccccc2)c2ccccc2)C3)cc1OC
– | 260 | COc1ccc(Cn2cnc3c2C[C@@H](C(=O)O)N(C(=O)C(c2ccccc2)c2ccccc2)C3)cc1F
3800 | 440 | O=C(O)C1Cc2c(ncn2Cc2ccccc2)CN1C(=O)C(c1ccccc1)c1ccccc1 (stereo in doubt; 18a)
– | 300 | Cc1ccc(Cn2cnc3c2C[C@@H](C(=O)O)N(C(=O)C(c2ccccc2)c2ccccc2)C3)cc1C
– | 150 | Nc1ccc(Cn2cnc3c2C[C@@H](C(=O)O)N(C(=O)C(c2ccccc2)c2ccccc2)C3)cc1
